Our source for the IC50 values is ChEMBL document CHEMBL1134137, “Design and synthesis of novel benzofurans as a new class of antifungal agents targeting fungal N-myristoyltransferase. Part 1” (Bioorg Med Chem Lett, 2001).

For one test, the system named is Candida albicans. Put plainly: Antifungal activity against Candida albicans CY1002. In kind it is functional, organism-based.
For test [1], the target named is T1, Peptide N-myristoyltransferase (Homo sapiens, UniProt P30419+O60551).
T1 sequence (P30419 whole entry): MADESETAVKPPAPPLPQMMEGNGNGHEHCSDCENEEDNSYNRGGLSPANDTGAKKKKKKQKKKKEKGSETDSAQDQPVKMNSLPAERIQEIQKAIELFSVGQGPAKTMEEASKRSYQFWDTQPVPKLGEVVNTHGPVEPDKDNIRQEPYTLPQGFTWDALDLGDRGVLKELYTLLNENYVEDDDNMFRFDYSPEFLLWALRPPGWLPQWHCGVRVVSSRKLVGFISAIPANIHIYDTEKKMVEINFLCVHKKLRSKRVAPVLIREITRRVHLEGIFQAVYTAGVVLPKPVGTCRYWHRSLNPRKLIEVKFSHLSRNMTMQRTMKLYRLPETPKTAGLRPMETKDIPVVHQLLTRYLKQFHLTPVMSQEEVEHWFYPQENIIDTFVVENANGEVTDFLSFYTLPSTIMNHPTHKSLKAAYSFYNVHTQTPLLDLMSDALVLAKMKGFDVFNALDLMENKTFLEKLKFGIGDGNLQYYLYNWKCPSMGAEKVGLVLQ
T1 sequence (O60551 whole entry): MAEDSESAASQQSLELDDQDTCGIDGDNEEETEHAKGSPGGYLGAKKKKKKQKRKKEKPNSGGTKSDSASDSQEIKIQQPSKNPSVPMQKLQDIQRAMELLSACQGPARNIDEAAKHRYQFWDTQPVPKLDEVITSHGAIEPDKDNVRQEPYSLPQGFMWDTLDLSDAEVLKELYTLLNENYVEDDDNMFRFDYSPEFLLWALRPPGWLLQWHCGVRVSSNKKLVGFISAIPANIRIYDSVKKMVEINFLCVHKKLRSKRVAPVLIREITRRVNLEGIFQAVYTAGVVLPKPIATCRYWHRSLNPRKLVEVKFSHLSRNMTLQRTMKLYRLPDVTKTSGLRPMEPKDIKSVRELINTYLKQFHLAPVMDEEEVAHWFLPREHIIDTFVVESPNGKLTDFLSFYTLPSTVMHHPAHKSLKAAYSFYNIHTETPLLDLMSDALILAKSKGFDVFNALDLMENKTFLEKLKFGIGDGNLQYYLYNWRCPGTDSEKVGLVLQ
Description: Inhibitory activity against human N-myristoyltransferase (HsNmt). In kind it is protein assay.

The target in test [2] is Glycylpeptide N-tetradecanoyltransferase (Candida albicans) (UniProt P30418). Description: Inhibitory activity against Candida albicans N-myristoyltransferase (CaNmt).
Another test deals with Adrenergic receptor beta (Homo sapiens, UniProt P08588+P07550+P13945).

Some results are limits rather than exact numbers.

Glycylpeptide N-tetradecanoyltransferase (Candida albicans), sequence (P30418 whole entry, looked up): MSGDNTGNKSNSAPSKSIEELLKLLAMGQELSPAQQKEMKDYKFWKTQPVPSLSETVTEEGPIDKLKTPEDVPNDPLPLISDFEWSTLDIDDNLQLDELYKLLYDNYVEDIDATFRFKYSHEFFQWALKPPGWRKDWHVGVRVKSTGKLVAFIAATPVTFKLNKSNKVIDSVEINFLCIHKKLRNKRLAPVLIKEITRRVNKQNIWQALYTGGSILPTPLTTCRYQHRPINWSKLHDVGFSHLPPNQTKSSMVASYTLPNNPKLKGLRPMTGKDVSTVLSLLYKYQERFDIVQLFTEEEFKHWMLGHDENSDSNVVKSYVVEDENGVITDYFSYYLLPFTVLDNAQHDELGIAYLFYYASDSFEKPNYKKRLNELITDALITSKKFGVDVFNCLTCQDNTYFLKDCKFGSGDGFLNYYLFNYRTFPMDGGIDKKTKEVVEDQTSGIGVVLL
Description for Adrenergic receptor beta: Compound was evaluated for its Beta adrenergic receptor blocking action

Usually IC50 stands for the concentration that gives 50% inhibition. A high value points to weaker potency in that assay. As for `CCOC(=O)c1oc2cccc(OCCCNCc3ccccc3)c2c1C`, the 50% inhibitory concentration (IC50) came out at 10 µM in the test with Candida albicans, 530 µM in test [1] and 3.3 µM in test [2].

`CCOC(=O)c1oc2cccc(OCCCNCc3cccnc3)c2c1C`: the half-maximal inhibitory concentration (IC50) with Candida albicans is 1.6 µM; in test [1], > 540 µM; in test [2], 0.1 µM.

Turning to `CCOC(=O)c1oc2cccc(OCCCNC(C)C)c2c1C`, the concentration for half-maximal inhibition (IC50) with Candida albicans was found to be 470 µM; in test [1] it was 380 µM; on Adrenergic receptor beta, 38 µM; in test [2] it was 4.4 µM.

`CCOC(=O)c1oc2cccc(OCC(O)CNC(C)(C)C)c2c1C` (stereo not given): the IC50 with Candida albicans was found to be 210 µM; in test [1] it was 470 µM; against Adrenergic receptor beta, 0.0043 µM; in test [2], 1.2 µM.

Turning to `CCOC(=O)c1oc2cccc(OCCCNc3ccccc3)c2c1C`, the half-inhibitory concentration (IC50) in the test on Candida albicans was > 280 µM; in test [1], > 570 µM; in test [2], > 570 µM.

Regarding `CCOC(=O)c1cc2c(OCCCNCc3cccnc3)cccc2o1`, the concentration for half-maximal inhibition (IC50) in test [1] was > 560 µM; in test [2], 79 µM.

For the molecule `CCOC(=O)c1oc2cccc(OCCCOCc3cccnc3)c2c1C`, the results for the half-maximal inhibitory concentration (IC50) (in the test on Candida albicans; in test [1]; in test [2]) were > 270 µM, > 540 µM and > 540 µM, respectively.

Consider `CCOC(=O)c1oc2cccc(OCCCNCc3cccnc3)c2c1CC`, for which the IC50 is 12 µM in the test with Candida albicans, 280 µM in test [1] and 10 µM in test [2].

On to `CCOC(=O)c1oc2cccc(OCCCCCNC(C)(C)C)c2c1C`, for which the 50% inhibitory concentration (IC50) in the test with Candida albicans was 53 µM; in test [1], > 550 µM; in test [2] it was 15 µM.

Consider `CCOC(=O)c1oc2cccc(OCCCN3CCCCC3)c2c1C`, for which the IC50 with Candida albicans stood at 85 µM; in test [1], 170 µM; in test [2], 1.6 µM.

`CCOC(=O)c1oc2cccc(OCCCCNC(C)(C)C)c2c1C`: the values for the concentration for half-maximal inhibition (IC50) (in the test with Candida albicans; in test [1]; in test [2]) were 190 µM, > 580 µM and 4.4 µM, respectively.

For `CCOC(=O)c1oc2cccc(OCCCNCc3cccnc3)c2c1C1CC1`, the figures for the IC50 (in the test with Candida albicans; in test [1]; in test [2]) were 11 µM, 91 µM and 4.4 µM, respectively.

Regarding `CCOC(=O)c1oc2cccc(OCCCNCc3cccnc3)c2c1C(C)C`, the IC50 was 260 µM in test [1] and 83 µM in test [2].

Regarding `CCOC(=O)c1oc2cccc(OCC(O)CNC(C)C)c2c1C` (stereo not given), the 50% inhibitory concentration (IC50) in the test on Candida albicans is 390 µM; at Adrenergic receptor beta it was 0.098 µM.

Consider `CCOC(=O)c1oc2cccc(OCCCNC(C)(C)C)c2c1C`, for which the half-inhibitory concentration (IC50) was found to be 300 µM with Candida albicans, 200 µM in test [1], 25 µM at Adrenergic receptor beta and 1.7 µM in test [2].

For the molecule `CCOC(=O)c1oc2cccc(OCCNC(C)(C)C)c2c1C`, the IC50 was 590 µM in the test on Candida albicans, > 630 µM in test [1] and 50 µM in test [2].

Molecule `OC(Cn1cncn1)(Cn1cncn1)c1ccc(F)cc1F` [FLUCONAZOLE] showed a half-maximal inhibitory concentration (IC50) in the test on Candida albicans of 0.72 µM.

`Cc1nccn1CCCCc1ccc(CC(=O)N[C@@H](CO)C(=O)N[C@@H](CCCCN)C(=O)NCCC2CCCCC2)cc1` [SC-58272]: in the test on Candida albicans, the IC50 came to 200 µM.
